Assay results: patent publication US20240109880A1 (Insilico Medicine IP Limited, priority 2021, published 2024)

molecular target: KAT6A (Homo sapiens (Human), UniProt Q92794); assay: KAT6A Biochemical Assay (radiometric 384-well, [3H]-Ac-CoA, biotinylated H4(1-30) peptide); details: 5 nM KAT6A enzyme solution (2×), 60 min reaction at room temperature
Protocol: Inhibition of KAT6A enzymatic activity by test compounds was determined using a radiometric 384-well format assay. A 10-point serial dilution of the test compounds were conducted in DMSO and then a volume of 200 nL was transferred into 384-well assay plate by Echo (Labcyte). 10 μL of 2× enzyme solution (5 nM KAT6A (Active Motif) in assay buffer (50 mM Tris-HCl pH 8.0, 50 mM KCl, 0.1 mM EDTA, 5% glycerol, 1 mM DTT)) was dispensed into assay plate except for low control wells, in which 10 μL of assay buffer was transferred. The plate was incubated at room temperature for 15 min before addition of 10 μL of 2×[^3H]-acetyl coenzyme A (Ac-CoA) and substrate peptide mix solution (500 nM (KAT6A) [^3H]-Ac-CoA (PerkinElmer) and 800 nM (KAT6A) biotinylated H4(1-30) peptide (GL Biochem) in assay buffer) to each well to start reaction. The plate was incubated at room temperature for 60 min (KAT6A), and then the reaction was stopped by adding 10 μL of stop solution (cold Ac-CoA (Cayman) in 1× assay buffer). 25 μL of reaction in each well was transferred to Flashplate (PerkinElmer) and incubated for another 1 hour at room temperature. The plate was read on Microbeta and the inhibition percentage of each compound treated well was calculated based on the equation in h %=(Max−sample)/(Max−Min)*100 where Max is signal from high control wells with enzyme, and Min is signal from low control wells with assay buffer only. The in h % data were further fit in XL-Fit to obtain IC50 values using a 4-parameter logistic (4PL) sigmoidal curve model.

Sequence of KAT6A (Q92794 whole entry): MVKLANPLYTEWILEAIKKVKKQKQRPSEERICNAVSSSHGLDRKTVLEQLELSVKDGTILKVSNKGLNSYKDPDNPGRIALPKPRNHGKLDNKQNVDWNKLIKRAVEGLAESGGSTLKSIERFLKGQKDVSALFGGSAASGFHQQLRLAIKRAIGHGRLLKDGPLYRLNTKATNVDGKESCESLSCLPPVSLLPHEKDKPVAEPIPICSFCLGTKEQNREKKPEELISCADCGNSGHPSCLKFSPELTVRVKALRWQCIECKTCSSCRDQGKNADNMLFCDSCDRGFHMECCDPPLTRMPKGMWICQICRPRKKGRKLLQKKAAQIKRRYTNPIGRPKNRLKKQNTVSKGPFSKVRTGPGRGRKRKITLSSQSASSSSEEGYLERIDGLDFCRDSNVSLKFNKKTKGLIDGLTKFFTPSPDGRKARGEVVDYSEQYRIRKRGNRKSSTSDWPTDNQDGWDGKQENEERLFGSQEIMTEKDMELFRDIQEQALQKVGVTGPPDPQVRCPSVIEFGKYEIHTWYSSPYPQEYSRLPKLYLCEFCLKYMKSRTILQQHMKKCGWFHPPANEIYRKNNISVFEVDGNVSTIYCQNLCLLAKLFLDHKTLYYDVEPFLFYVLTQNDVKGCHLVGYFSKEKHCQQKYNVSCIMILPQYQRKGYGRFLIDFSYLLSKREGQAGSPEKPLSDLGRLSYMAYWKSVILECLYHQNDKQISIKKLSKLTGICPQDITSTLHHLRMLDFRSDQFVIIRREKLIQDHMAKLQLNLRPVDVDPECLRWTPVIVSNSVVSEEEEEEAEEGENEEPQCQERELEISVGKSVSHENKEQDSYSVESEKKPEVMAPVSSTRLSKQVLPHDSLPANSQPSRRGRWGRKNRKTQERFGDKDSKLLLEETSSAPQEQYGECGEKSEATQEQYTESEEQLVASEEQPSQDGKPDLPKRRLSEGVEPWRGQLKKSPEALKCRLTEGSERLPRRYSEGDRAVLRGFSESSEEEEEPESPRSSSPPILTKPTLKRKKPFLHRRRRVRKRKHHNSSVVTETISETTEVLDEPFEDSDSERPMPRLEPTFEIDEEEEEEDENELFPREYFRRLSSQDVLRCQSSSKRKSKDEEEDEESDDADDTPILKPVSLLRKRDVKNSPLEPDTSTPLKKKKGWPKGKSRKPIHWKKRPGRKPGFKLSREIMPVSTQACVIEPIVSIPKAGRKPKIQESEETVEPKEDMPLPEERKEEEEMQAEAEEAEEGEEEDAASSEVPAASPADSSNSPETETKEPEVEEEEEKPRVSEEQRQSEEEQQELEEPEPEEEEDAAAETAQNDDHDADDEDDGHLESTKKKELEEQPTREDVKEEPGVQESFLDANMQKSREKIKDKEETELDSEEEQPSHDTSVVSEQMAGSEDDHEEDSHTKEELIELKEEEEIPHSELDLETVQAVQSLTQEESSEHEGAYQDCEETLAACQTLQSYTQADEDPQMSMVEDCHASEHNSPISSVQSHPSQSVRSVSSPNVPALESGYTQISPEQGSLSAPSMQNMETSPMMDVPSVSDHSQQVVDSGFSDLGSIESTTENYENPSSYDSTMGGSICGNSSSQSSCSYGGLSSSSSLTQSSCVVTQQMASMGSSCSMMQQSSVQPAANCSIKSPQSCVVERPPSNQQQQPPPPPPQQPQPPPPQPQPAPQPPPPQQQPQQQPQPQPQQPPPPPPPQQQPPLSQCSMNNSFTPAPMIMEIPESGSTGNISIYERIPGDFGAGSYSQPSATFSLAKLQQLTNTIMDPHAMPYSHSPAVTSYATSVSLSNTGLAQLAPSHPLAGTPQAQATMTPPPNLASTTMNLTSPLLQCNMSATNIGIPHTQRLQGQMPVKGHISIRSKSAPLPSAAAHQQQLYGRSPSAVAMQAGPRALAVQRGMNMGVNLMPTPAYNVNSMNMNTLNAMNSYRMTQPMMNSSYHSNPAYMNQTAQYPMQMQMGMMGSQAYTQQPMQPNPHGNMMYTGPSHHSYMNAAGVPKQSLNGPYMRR

Structure (SMILES)	IC50
COc1cc(C(F)F)nc(OC)c1S(=O)(=O)Nc1noc2cc(Cn3cccn3)cc(OCF)c12 [Compound 50, N-(6-((1H-pyrazol-1-yl)methyl)-4-(fluoromethoxy)benzo[d]isoxazol-3-yl)-6-(difluoromethyl)-2,4-dimethoxypyridine-3-sulfonamide]	10 to 1000 nM
COc1cccc(OC)c1S(=O)(=O)Nc1noc2cc(Oc3ncccn3)c3c(c12)OCCC3 [Compound 33, 2,6-dimethoxy-N-(5-(pyrimidin-2-yloxy)-3,4-dihydro-2H-chromeno[8,7-d]isoxazol-9-yl)benzenesulfonamide]	10 to 100 nM
COc1cccc(OC)c1S(=O)(=O)Nc1noc2cc(Oc3ncccc3C)c3c(c12)OCCC3 [Compound 36, 2,6-dimethoxy-N-(5-((3-methylpyridin-2-yl)oxy)-3,4-dihydro-2H-chromeno[8,7-d]isoxazol-9-yl)benzenesulfonamide]	< 10 nM
COc1cc(C)ncc1S(=O)(=O)Nc1noc2cc(Cn3cccn3)cc(OC)c12 [Compound 38, N-(6-((1H-pyrazol-1-yl)methyl)-4-methoxybenzo[d]isoxazol-3-yl)-4-methoxy-6-methylpyridine-3-sulfonamide]	10 to 1000 nM
COc1cccc(OC)c1S(=O)(=O)Nc1noc2cc(Oc3ncco3)c3c(c12)OCCC3 [Compound 34, 2,6-dimethoxy-N-(5-(oxazol-2-yloxy)-3,4-dihydro-2H-chromeno[8,7-d]isoxazol-9-yl)benzenesulfonamide]	< 10 nM
COc1cccc(OC)c1S(=O)(=O)Nc1noc2cc(Cn3cccn3)cnc12 [Compound 1, N-(6-((1H-pyrazol-1-yl)methyl)isoxazolo[4,5-b]pyridin-3-yl)-2,6-dimethoxybenzenesulfonamide]	10 to 1000 nM
COc1ccccc1S(=O)(=O)Nc1noc2cc(Oc3ccccn3)c3c(c12)OCC3 [Compound 26, 2-methoxy-N-(4-(pyridin-2-yloxy)-2,3-dihydrobenzofuro[7,6-d]isoxazol-8-yl)benzenesulfonamide]	10 to 100 nM
COc1cccc(OC)c1S(=O)(=O)Nc1noc2cc(Cn3cccn3)cc(OC(F)(F)F)c12 [Compound 8, N-(6-((1H-pyrazol-1-yl)methyl)-4-(trifluoromethoxy)benzo[d]isoxazol-3-yl)-2,6-dimethoxybenzenesulfonamide]	10 to 100 nM
CC#Cc1cc(OC)c(S(=O)(=O)Nc2noc3cc(Cn4cccn4)cc(OCF)c23)c(OC)n1 [Compound 53, N-(6-((1H-pyrazol-1-yl)methyl)-4-(fluoromethoxy)benzo[d]isoxazol-3-yl)-2,4-dimethoxy-6-(prop-1-yn-1-yl)pyridine-3-sulfonamide]	10 to 100 nM
COc1ccnc(OC)c1S(=O)(=O)Nc1noc2cc(Cn3cccn3)c(F)c(OCF)c12 [Compound 42, N-(6-((1H-pyrazol-1-yl)methyl)-5-fluoro-4-(fluoromethoxy)benzo[d]isoxazol-3-yl)-2,4-dimethoxypyridine-3-sulfonamide]	10 to 100 nM
COc1cccc(OC)c1S(=O)(=O)Nc1noc2nc(Cn3cccn3)cc(OC)c12 [Compound 13, N-(6-((1H-pyrazol-1-yl)methyl)-4-methoxyisoxazolo[5,4-b]pyridin-3-yl)-2,6-dimethoxybenzenesulfonamide]	> 1000 nM
COc1ccnc(OC)c1S(=O)(=O)Nc1noc2cc(Cn3cccn3)cc(OC)c12 [Compound 2, N-(6-((1H-pyrazol-1-yl)methyl)-4-methoxybenzo[d]isoxazol-3-yl)-2,4-dimethoxypyridine-3-sulfonamide]	10 to 100 nM
COc1cc(C(F)(F)F)nc(OC)c1S(=O)(=O)Nc1noc2cc(Cn3cccn3)cc(OC)c12 [Compound 41, N-(6-((1H-pyrazol-1-yl)methyl)-4-methoxybenzo[d]isoxazol-3-yl)-2,4-dimethoxy-6-(trifluoromethyl)pyridine-3-sulfonamide]	10 to 100 nM
COc1ccccc1S(=O)(=O)Nc1noc2cc(Cn3cccn3)cc(OC(F)(F)F)c12 [Compound 12, N-(6-((1H-pyrazol-1-yl)methyl)-4-(trifluoromethoxy)benzo [d]isoxazol-3-yl)-2-methoxybenzenesulfonamide]	10 to 100 nM
COc1ccccc1S(=O)(=O)Nc1noc2cc(Oc3ccccn3)c3c(c12)OCCC3 [Compound 25, 2-methoxy-N-(5-(pyridin-2-yloxy)-3,4-dihydro-2H-chromeno [8,7-d]isoxazol-9-yl)benzenesulfonamide]	< 10 nM
COc1ccnc(OC)c1S(=O)(=O)Nc1noc2cc(Cn3cccn3)c3c(c12)OCC3 [Compound 32, N-(4-((1H-pyrazol-1-yl)methyl)-2,3-dihydrobenzofuro[7,6-d]isoxazol-8-yl)-2,4-dimethoxypyridine-3-sulfonamide]	10 to 100 nM
COc1cc(C(F)F)nc(OC)c1S(=O)(=O)Nc1noc2cc(Cn3cccn3)cc(OC)c12 [Compound 40, N-(6-((1H-pyrazol-1-yl)methyl)-4-methoxybenzo[d]isoxazol-3-yl)-6-(difluoromethyl)-2,4-dimethoxypyridine-3-sulfonamide]	10 to 1000 nM
O=S(=O)(Nc1noc2cc(Cn3cccn3)cc(OC(F)F)c12)c1ccccc1OC(F)(F)F [Compound 7, N-(6-((1H-pyrazol-1-yl)methyl)-4-(difluoromethoxy)benzo[d]isoxazol-3-yl)-2-(trifluoromethoxy)benzenesulfonamide]	10 to 1000 nM

Results, then the compound that gave them:

IC50	Structure (SMILES)
< 10 nM	COc1ccnc(OC)c1S(=O)(=O)Nc1noc2cc(Cn3cccn3)cc(OCF)c12 [Compound 48, N-(6-((1H-pyrazol-1-yl)methyl)-4-(fluoromethoxy)benzo[d]isoxazol-3-yl)-2,4-dimethoxypyridine-3-sulfonamide]
< 10 nM	COc1cc(C)nc(OC)c1S(=O)(=O)Nc1noc2cc(Cn3cccn3)c3c(c12)OCCC3 [Compound 18, N-(5-((1H-pyrazol-1-yl)methyl)-3,4-dihydro-2H-chromeno [8,7-d]isoxazol-9-yl)-2,4-dimethoxy-6-methylpyridine-3-sulfonamide]
10 to 100 nM	COc1cc(C)nc(OC)c1S(=O)(=O)Nc1noc2cc(Cn3cccn3)c(F)c(OCF)c12 [Compound 43, N-(6-((1H-pyrazol-1-yl)methyl)-5-fluoro-4-(fluoromethoxy)benzo[d]isoxazol-3-yl)-2,4-dimethoxy-6-methylpyridine-3-sulfonamide]
< 10 nM	COc1cc(C)nc(OC)c1S(=O)(=O)Nc1noc2cc(Cn3cccn3)c3c(c12)OCCCC3 [Compound 21, N-(6-((1H-pyrazol-1-yl)methyl)-2,3,4,5-tetrahydrooxepino [3′,2′:5,6]benzo[1,2-d]isoxazol-10-yl)-2,4-dimethoxy-6-methylpyridine-3-sulfonamide]
10 to 100 nM	COc1ccccc1S(=O)(=O)Nc1noc2cc(Cn3cccn3)cc(OC(F)F)c12 [Compound 6, N-(6-((1H-pyrazol-1-yl)methyl)-4-(difluoromethoxy)benzo[d]isoxazol-3-yl)-2-methoxybenzenesulfonamide]
< 10 nM	COc1cccc(OC)c1S(=O)(=O)Nc1noc2cc(Cn3cccn3)cc(OC(F)F)c12 [Compound 3, N-(6-((1H-pyrazol-1-yl)methyl)-4-(difluoromethoxy)benzo[d]isoxazol-3-yl)-2,6-dimethoxybenzenesulfonamide]
10 to 100 nM	COc1ccnc(OC)c1S(=O)(=O)Nc1noc2cc(Cn3cccn3)cc(OC(F)F)c12 [Compound 5, N-(6-((1H-pyrazol-1-yl)methyl)-4-(difluoromethoxy)benzo[d]isoxazol-3-yl)-2,4-dimethoxypyridine-3-sulfonamide]
10 to 100 nM	COc1ncccc1S(=O)(=O)Nc1noc2cc(Cn3cccn3)c3c(c12)OCCC3 [Compound 16, N-(5-((1H-pyrazol-1-yl)methyl)-3,4-dihydro-2H-chromeno [8,7-d]isoxazol-9-yl)-2-methoxypyridine-3-sulfonamide]
< 10 nM	COc1cc(C)nc(OC)c1S(=O)(=O)Nc1noc2cc(Cn3cccn3)c3c(c12)OCC1CC31 (stereo not drawn) [Compound 69, N-(7-((1H-pyrazol-1-yl)methyl)-5,5a,6,6a-tetrahydrocyclopropa[3,4]chromeno[8,7-d]isoxazol-3-yl)-2,4-dimethoxy-6-methylpyridine-3-sulfonamide]
< 10 nM	C#Cc1cc(OC)c(S(=O)(=O)Nc2noc3cc(Cn4cccn4)cc(OCF)c23)c(OC)n1 [Compound 54, N-(6-((1H-pyrazol-1-yl)methyl)-4-(fluoromethoxy)benzo[d]isoxazol-3-yl)-6-ethynyl-2,4-dimethoxypyridine-3-sulfonamide]
< 10 nM	COc1cc(C(F)(F)F)nc(OC)c1S(=O)(=O)Nc1noc2cc(Cn3cccn3)cc(OCF)c12 [Compound 51, N-(6-((1H-pyrazol-1-yl)methyl)-4-(fluoromethoxy)benzo[d]isoxazol-3-yl)-2,4-dimethoxy-6-(trifluoromethyl)pyridine-3-sulfonamide]
< 10 nM	COc1ccnc(OC)c1S(=O)(=O)Nc1noc2cc(Cn3cccn3)c3c(c12)OCCC3 [Compound 17, N-(5-((1H-pyrazol-1-yl)methyl)-3,4-dihydro-2H-chromeno [8,7-d]isoxazol-9-yl)-2,4-dimethoxypyridine-3-sulfonamide]
